{"source": "paper PMC10201369", "about": "“An asymmetric structure of bacterial TrpRS supports the half-of-the-sites catalytic mechanism and facilitates antimicrobial screening” (Nucleic Acids Research, 2023)", "key": {"SaTrpRS": {"target": "T1, SaTrpRS (Staphylococcus aureus, UniProt P67593)", "T1 construct": "gene trpS; residues 1-329, expressed and purified similarly to EcTrpRS (His-tagged, E. coli BL21(DE3))", "T1 sequence (P67593 whole entry, the tested form may be a part)": "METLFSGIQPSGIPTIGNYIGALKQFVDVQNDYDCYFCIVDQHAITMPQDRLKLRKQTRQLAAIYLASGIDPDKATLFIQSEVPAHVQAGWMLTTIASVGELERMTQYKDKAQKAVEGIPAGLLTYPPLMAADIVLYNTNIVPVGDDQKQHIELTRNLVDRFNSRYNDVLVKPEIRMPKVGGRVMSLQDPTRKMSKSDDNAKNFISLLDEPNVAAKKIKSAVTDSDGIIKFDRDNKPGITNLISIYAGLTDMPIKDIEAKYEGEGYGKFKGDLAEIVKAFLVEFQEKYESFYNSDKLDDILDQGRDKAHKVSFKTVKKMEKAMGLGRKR", "experiment": "ITC, one-site model", "type": "binding", "conditions": "PBS, 15 °C"}, "EcTrpRS [1]": {"target": "T2, EcTrpRS (Escherichia coli, UniProt P00954)", "T2 construct": "gene trpS; full-length (domains span residues 1-334), C-terminal His6 tag, pET20b(+), E. coli BL21(DE3); homodimer, as purified carries one copurified TrpAMP per dimer", "experiment": "ATP consumption assay (Kinase-Glo), tRNA-dependent", "type": "biochemical"}, "EcTrpRS [2]": {"target": "T2, EcTrpRS", "experiment": "ITC, one-site model; cocrystal structure", "type": "binding", "conditions": "PBS, 15 °C"}, "EcTrpRS [3]": {"target": "T2, EcTrpRS", "experiment": "crystal structure, copurified", "type": "binding", "conditions": "intermediate product in active site of closed subunit; 1.80 Å"}, "EcTrpRS [4]": {"target": "T2, EcTrpRS", "experiment": "ITC, one-site model", "type": "binding"}}}
{"smiles": "NC(=O)c1cccc2cn(-c3ccc([C@@H]4CCCNC4)cc3)nc12", "note": "[niraparib]", "values": [{"measurement": "Kd", "setting": "SaTrpRS", "value": "~ around 20 μM"}, {"measurement": "IC50", "setting": "EcTrpRS [1]", "value": 148, "unit": "µM"}, {"measurement": "Kd", "setting": "EcTrpRS [2]; L-Trp site of the open subunit, blocked by high L-Trp", "value": "~ around 20 μM"}]}
{"smiles": "N[C@@H](Cc1c[nH]c2ccccc12)C(=O)O", "note": "[L-Trp]", "values": [{"measurement": "Kd", "setting": "EcTrpRS [2]; measured for open-closed (one TrpAMP bound) and apo open-open enzyme, active site of open subunit", "value": "ITC measurements of L-Trp to ‘open-closed’ asymmetric EcTrpRS and ‘open-open’ apo EcTrpRS showed similar binding"}]}
{"smiles": "Nc1ncnc2c1ncn2[C@@H]1O[C@H](COP(=O)(O)OC(=O)[C@@H](N)Cc2c[nH]c3ccccc23)[C@@H](O)[C@H]1O", "note": "[TrpAMP]", "values": [{"measurement": "crystal structure, copurified", "setting": "EcTrpRS [3]", "value": "A copurified tryptophanyl adenylate (TrpAMP)"}]}
{"smiles": "Nc1ncnc2c1ncn2[C@@H]1O[C@H](COP(=O)(O)OP(=O)(O)OP(=O)(O)O)[C@@H](O)[C@H]1O", "note": "[ATP]", "values": [{"measurement": "Kd", "setting": "EcTrpRS [4]", "value": "305 ± 49.9", "unit": "µM"}]}
